This is an account of results in patent US20160151461A1, “Cardio-Metabolic and Vascular Effects of GLP-1 Metabolites” (THE TRUSTEES OF THE UNIVERSITY OF PENNSYLVANIA, priority 2013, published 2016).

No end group written: not given here.

One data set concerns myocardium; donor organs. As to the kind of experiment: myocardial glucose uptake and preconditioning of donor organs against ischemic injury (summary statement).
The subject of another data set is AMP kinase. As to the kind of experiment: isolated isovolumic rat heart, activation of AMP kinase. The settings on record: for AMPK activation in presence of EXE (inhibits activation of the GLP-1 receptor): with EXE; for AMPK activation in presence of pertussus toxin (PTX): with PTX (Gi); for AMPK activation in presence of STO609 (CAM kinase): with STO609. From the text:
It is largely unknown how GLP-1 stimulates glucose uptake independent of insulin. A candidate mechanism involves the activation of AMP kinase which causes GLUT translocation and glucose uptake independent of insulin. The isolated isovolumic rat heart was studied as a model in which myocardial specific responses can be observed (FIG. 4).

The subject of data set [1] is conscious chronically instrumented dogs with pacing induced heart failure. In words: pacing induced model of dilated cardiomyopathy in conscious chronically instrumented dogs (72 hours of rapid ventricular pacing). In kind it is in vivo. The settings on record: after 72 hours of rapid ventricular pacing, vs Control. On the procedure: In order to compare the vasoactive effects of different classes of incretins, experiments were designed to study the pacing induced model of dilated cardiomyopathy in conscious chronically instrumented dogs (FIG. 3). These animals were instrumented to examine the effects of equal concentrations of various classes of incretins on coronary blood flow and renal blood flow. All dogs underwent 72 hours of rapid ventricular pacing following which coronary flow responses were measured (Control). Rapid pacing was associated with 30-35% declines in coronary blood flow and renal blood flow respectively. […] This supports the notion that the native peptide and active metabolites have vasoactive as well as glucose-stimulatory properties. The renal vascular effects support the claims for use in heart failure complicated by renal failure (cardio-renal syndrome). The coronary vasodilator properties support the claims for the use in acute coronary syndromes and microvascular angina.

For data set [2], the system named is conscious, chronically instrumented dogs. As to the kind of experiment: rapid pacing induced stress (72 hour) in conscious, chronically instrumented dogs, hemodynamic measurements. Type of data set: in vivo. The conditions noted are these: 72 hours rapid pacing stress, vs sham vehicle. From the text: FIG. 7 illustrates characteristic instrumentation of conscious, chronically instrumented dogs studied in the laboratory. Under sterile surgical technique, the animals are instrumented as indicated and allowed to recover fully from their surgery. LV, aortic, and left atrial catheters were used to measure pressures. LV Konigsberg® transducer was used to measure isovolumic contractility and relaxation as measures of systolic and diastolic function. Ultrasonic dimension crystals were used to measure LV shortening and LV filling rates. Pacing leads were attached to the left atrial appendage. Transonics® flow probes were placed around the left circumflex coronary artery and right renal artery to measure coronary and renal blood flow.
Experiments were performed where 25 conscious, chronically instrumented dogs (FIG. 7) were subjected to a rapid pacing induced stress which recapitulates the hemodynamic perturbations experienced by patients with sudden onset of paroxysmal atrial fibrillation (FIG. 8). Dogs were studied before and daily during the 72 hour pacing stress. […] All measurements were made during intrinsic sinus rhythm 20-30 minutes after cessation of pacing. Hemodynamic measurements included: • LV systolic and diastolic pressures, mean arterial pressures, heart rate • Systolic function: LV contractility (systolic contractile function), LV fractional shortening • Diastolic function: LV isovolumic relaxation time constant, LV filling rate • Flows: systemic, coronary and renal blood flows

For data set [3] the following is noted: in vivo; cited from earlier work.
For data set [4], the system named is large animal models of advanced heart failure. The conditions noted are these: cited from earlier work.
The subject of data set [5] is patients with advanced heart failure. The settings on record: 5 weeks of continuous infusion, NYHA Class IIIB and IV; cited from earlier work.
Data set [6] deals with patients with mild heart failure. The settings on record: infused for 48 hours, NYHA Class II; cited from earlier work.
In a further data set the test system is advanced heart failure. The settings on record: cited from earlier work.
Data set [7] has as its system normal, conscious, chronically instrumented dogs. As to the kind of experiment: hyperglycemic clamp studies in normal, conscious, chronically instrumented dogs. Type of data set: in vivo. On the procedure: To determine the effect of GLP-1 (32-36) on coronary blood flow, hyperglycemic clamp studies were conducted in normal, conscious, chronically instrumented dogs (n=3), in which plasma glucose was raised to 180 mg/dl by continuous infusion of glucose (FIG. 1). The plasma glucose concentration was monitored continuously as was plasma insulin response. In the control studies, the 5 dogs underwent the 3 hour hyperglycemic clamp. On a separate occasion, the same animals underwent a 3 hour hyperglycemic clamp in which GLP-1 (32-36) was infused beginning in the second hour.
Myocardial glucose uptake is calculated as the product of the difference in the arterial-coronary sinus glucose content and the average coronary blood flow. The increase in myocardial glucose uptake is in excess of that attributable to the increase in coronary blood flow alone.

On to “Glu-Gly-Thr-Phe-Thr-Ser-Asp-Val-Ser-Ser-Tyr-Leu-Glu-Gly-Gln-Ala-Ala-Lys-Glu-Phe-Ile-Ala-Trp-Leu-Val-Lys-Gly-Arg (EGTFTSDVSSYLEGQAAKEFIAWLVKGR-NH2) [GLP-1 (9-36) amide]”, for which, in the data set on myocardium; donor organs, the “preconditioning donor organs against ischemic injury” value is “active” and the “stimulating glucose uptake into myocardium in a non-insulin dependent fashion” value is recorded as “active”. Also, the “phosphorylation and activation of AMP kinase” value in the data set on AMP kinase (60 minutes of perfusion) was “increased the phosphorylation and the activation of AMP kinase”. Further, in the data set with AMP kinase, the “AMPK activation in presence of EXE (inhibits activation of the GLP-1 receptor)” value is on record as “GLP-1 receptor independent”; the “AMPK activation in presence of pertussus toxin (PTX)” value was “pertussus toxin (Gi) and Ca-Calmodulin dependent”; the “AMPK activation in presence of STO609 (CAM kinase)” value is “pertussus toxin (Gi) and Ca-Calmodulin dependent”. For the same substance, in the data set on AMP kinase (listed as GLP-1 (9-36)), the “AMPK activation in presence of EXE (inhibits activation of the GLP-1 receptor)” value was “not blocked”, the “AMPK activation in presence of pertussus toxin (PTX)” value is listed as “blocked by pertussus toxin” and the “AMPK activation in presence of STO609 (CAM kinase)” value was “blocked by STO609”. The “AMPK activation under neuroendopeptidase inhibition (NEPI)” value in the data set with AMP kinase (with NEPI) is given as “abolished”. Further, in data set [1], the coronary blood flow entry was “preserved coronary and renal blood flow to a greater extent than seen in control”; the renal blood flow entry was “preserved coronary and renal blood flow to a greater extent than seen in control”. In data set [2], the “LV systolic and diastolic function” value is recorded as “mitigated the declines”; the coronary blood flow result is “preserved”; the renal blood flow result is on record as “preserved”; the systemic vascular resistance entry was “mitigated the declines in LV systolic and diastolic function and the rise”.

For Glucagon-like peptide-1 [GLP-1], in data set [3], the active half-life time was 1 to 2 min and the “half-life time in blood” value was ≤ 5 min.

Regarding “His-Ala-Glu-Gly-Thr-Phe-Thr-Ser-Asp-Val-Ser-Ser-Tyr-Leu-Glu-Gly-Gln-Ala-Ala-Lys-Glu-Phe-Ile-Ala-Trp-Leu-Val-Lys-Gly-Arg [GLP-1 (7-36) amide]”, in data set [4] (in vivo, iv), the “expression of mitochondrial uncoupling protein 3 (UCP-3) and mitochondrial cytochrome oxidase (Complex IV)” value is “increased”. In addition, the “mitochondrial reactive oxygen species (ROS) generation” value in [4] (in vivo) was “decreased”. For the same substance, the “cell survival pathways (ras dependent activation of p38 MAP kinase, induction of NOS2)” value in data set [4] (independent of insulin signaling pathways) was “activates”. Further, in data set [5], the functional outcomes is “improved functional outcomes”. In addition, the benefit result in data set [6] is “no benefit”. Moreover, in data set [1], the coronary blood flow result was “preserved coronary and renal blood flow to a greater extent than seen in control”; the renal blood flow result was “preserved coronary and renal blood flow to a greater extent than seen in control”. Moreover, in data set [2], the “LV systolic and diastolic function” value is reported as “mitigated the declines”; the coronary blood flow entry was “preserved”; the renal blood flow entry is “preserved”; the systemic vascular resistance entry is “mitigated the declines in LV systolic and diastolic function and the rise”. Also, in the data set with advanced heart failure, the “elevated levels of plasma glucagon” value is reported as “suppresses” and the insulin action entry is recorded as “augments”.

“Leu-Val-Lys-Gly-Arg (LVKGR-NH2) [GLP-1 (32-36) amide]”: in the data set with myocardium; donor organs, the “preconditioning donor organs against ischemic injury” value is “active” and the “stimulating glucose uptake into myocardium in a non-insulin dependent fashion” value is listed as “active”. In addition, in data set [7] (3 hour hyperglycemic clamp, plasma glucose 180 mg/dl, peptide infused beginning in the second hour, vs control clamp), the “increase in coronary blood flow” value is recorded as “significantly greater increase”. For the same substance, the “increase in myocardial glucose uptake” value in [7] (hyperglycemic clamp, matched hyperinsulinemia, vs control) is recorded as “significantly greater increase”.
